Series [1] has as its system NIH3T3 (mouse embryo fibroblast cell line). Description: MTT cell viability assay, NIH3T3 healthy cells. The class given is cell-based. On the technique in general: Tetrazolium assays rely on reduction of a dye to a coloured formazan, in cell work by metabolically active cells.
The subject of series [2] is A549 (lung carcinoma cell line). Description: MTT cell viability assay, A549. The class given is cell-based. The note with it: Homo sapiens. The method, then:
(§1) The anticancer activity of compounds 4a–l were screened according to the MTT assays. The MTT assays were performed as previously described.[3] Anticancer activity of final compounds was assessed against […] A549 (lung carcinoma cell line) and C6 (rat glioma cell line) cell lines.

Series [3] relates to C6 (rat glioma cell line). Description: MTT cell viability assay, C6. The class given is cell-based. As for the experimental part:
as §1

The target of series [4] is T1, DNA topoisomerase I (Homo sapiens, UniProt P11387).
T1 construct: purchased TopoGen TG1018–2
T1 sequence (P11387 1-765): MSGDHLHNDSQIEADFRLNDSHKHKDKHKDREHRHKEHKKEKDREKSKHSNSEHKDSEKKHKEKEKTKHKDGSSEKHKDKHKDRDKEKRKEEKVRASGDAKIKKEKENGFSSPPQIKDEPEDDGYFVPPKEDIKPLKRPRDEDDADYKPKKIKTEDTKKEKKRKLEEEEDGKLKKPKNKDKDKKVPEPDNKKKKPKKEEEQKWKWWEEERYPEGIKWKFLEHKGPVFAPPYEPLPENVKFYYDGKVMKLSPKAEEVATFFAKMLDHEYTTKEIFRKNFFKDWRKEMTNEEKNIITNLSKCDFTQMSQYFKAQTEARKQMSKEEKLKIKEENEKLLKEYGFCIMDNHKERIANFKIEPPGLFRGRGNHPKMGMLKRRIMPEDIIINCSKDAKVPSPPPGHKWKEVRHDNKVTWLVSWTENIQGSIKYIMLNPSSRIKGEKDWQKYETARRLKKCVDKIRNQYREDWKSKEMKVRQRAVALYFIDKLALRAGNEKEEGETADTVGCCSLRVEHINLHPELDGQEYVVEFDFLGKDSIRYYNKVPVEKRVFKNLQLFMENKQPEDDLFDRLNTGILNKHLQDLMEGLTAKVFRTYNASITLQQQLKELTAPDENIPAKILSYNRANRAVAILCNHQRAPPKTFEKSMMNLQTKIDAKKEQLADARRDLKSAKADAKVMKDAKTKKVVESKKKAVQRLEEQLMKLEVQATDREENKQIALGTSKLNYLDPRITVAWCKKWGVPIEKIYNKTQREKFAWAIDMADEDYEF
Description: DNA topoisomerase I assay (TopoGen kit, relaxation of supercoiled plasmid DNA, agarose gel). Type of series: biochemical. The note with it: supercoiled plasmid DNA pHOT 1, 30 min at 37 °C. The method, then:
Topogen’s Topoisomerase I Drug Screening Kit was used to investigate the topoisomerase I effects of the compounds. With this kit, it is determined whether the compounds that inhibit Topo I activity act as catalytic inhibitors or topoisomerase poisons. Topoisomerase I inhibition activities of compounds 4b, 4h, Hoechst 33342, and camptothecin were evaluated in vitro and the analysis of the reaction products was visualized by the electrophoresis method. Supercoiled plasmid DNA (pHOT 1) was used as the control group. As another control group, plasmid DNA and topoisomerase I were used to ensure that the DNA became relaxed. Hoechst 33342, known as a topoisomerase poison, and camptothecin were used as positive controls.
Using agarose gel electrophoresis, the topoisomerase I inhibitory activities of the final compounds were assessed by measuring the relaxation of supercoiled plasmid DNA. A positive control, camptothecin, was used. A final volume of 20 μL reaction volume was used for the experiment, which contained 2 μL of 10× TGS buffer, […], 2 μL of supercoiled plasmid DNA, 2 μL of the test compound, 2 μL of Topo I, 2 μl of 10% SDS, 2 μL of proteinase K, and 2 μL of the DNA loading dye. Following a 30 min incubation period at 37 °C, the reaction mixtures were electrophoresed using 1× TAE buffer for 75 min at a potential of 50 V on a 1% agarose gel.[25]

For series [5], the system named is Topo II. Details: method as in PMID 35870412. To be noted: read-out: IC50 Topo II enzyme inhibition; cited from earlier work.

Where two headings read alike, the source gives them in different places.

One may read the IC50 as the concentration needed to halve the response being measured. For orientation: melting point means the temperature, or range, at which the solid turns liquid.

Molecule `COc1cccc2c1C(=O)c1c(O)c3c(c(O)c1C2=O)C[C@@](O)(C(=O)CO)C[C@@H]3O[C@H]1C[C@H](N)[C@H](O)[C@H](C)O1` [doxorubicin, reference compound] gave a 50% inhibitory concentration (IC50) in series [1] (NIH3T3, heading: IC50 NIH3T3) of 1.06 ± 0.00917 µM.
The molecule `CCn1c(SCC(=O)N2CCN(c3ccccn3)CC2)nnc1-c1ccc2nc(-c3ccc(O)cc3)[nH]c2c1` [4c, 2-((4-Ethyl-5-(2-(4-hydroxyphenyl)-1H-benzo[d]imidazol-6-yl)-4H-1,2,4-triazol-3-yl)thio)-1-(4-(2-pyridinyl)piperazin-1-yl)ethanone] registered a melting point of 312.4 °C. This molecule also registered an IC50 in series [2] of 15.8 ± 0.63 µM. In addition, it took 24 ± 2.4 µM to reach half-maximal inhibition in series [3] (IC50). This molecule also had an IC50 in series [1] of 32.2 ± 0.74 µM.
`CCOc1ccc(-c2nc3ccc(-c4nnc(SCC(=O)N5CCN(c6ccccn6)CC5)n4CC)cc3[nH]2)cc1` [4k, 2-((4-Ethyl-5-(2-(4-ethoxyphenyl)-1H-benzo[d]imidazol-6-yl)-4H-1,2,4-triazol-3-yl)thio)-1-(4-(2-pyridinyl)piperazin-1-yl)ethanone]: the melting point is 162.2 °C. In series [2], this molecule showed a 50% inhibitory concentration (IC50) of 24.9 ± 1.21 µM. In addition, the IC50 in series [3] turned out to be 64.6 ± 2.66 µM. The molecule also had a 50% inhibitory concentration (IC50) in series [1] of 46.4 ± 1.21 µM.
In turn, `CCOc1ccc(-c2nc3ccc(-c4nnc(SCC(=O)N5CCN(c6ccccc6)CC5)n4CC)cc3[nH]2)cc1` [4j, 2-((4-Ethyl-5-(2-(4-ethoxyphenyl)-1H-benzo[d]imidazol-6-yl)-4H-1,2,4-triazol-3-yl)thio)-1-(4-phenylpiperazin-1-yl)ethanone] yielded a melting point of 118.8 °C. Also, the IC50 in series [2] turned out to be 54.1 ± 2.18 µM. In series [3], this molecule displayed an IC50 greater than 100 µM. Moreover, the IC50 in series [1] was 69.5 ± 2.85 µM.
On the same counts, the results for `CCN1CCN(C(=O)CSc2nnc(-c3ccc4nc(-c5ccc(O)cc5)[nH]c4c3)n2CC)CC1` [4a, 2-((4-Ethyl-5-(2-(4-hydroxyphenyl)-1H-benzo[d]imidazol-6-yl)-4H-1,2,4-triazol-3-yl)thio)-1-(4-ethylpiperazin-1-yl)ethanone] are 223.5 °C, 21.8 ± 1.04 µM, greater than 100 µM and 64.8 ± 1.96 µM.
In the same order, the values of `CCn1c(SCC(=O)N2CCN(c3ccccn3)CC2)nnc1-c1ccc2nc(-c3ccc(OC)cc3)[nH]c2c1` [4g, 2-((4-Ethyl-5-(2-(4-methoxyphenyl)-1H-benzo[d]imidazol-6-yl)-4H-1,2,4-triazol-3-yl)thio)-1-(4-(2-pyridinyl)piperazin-1-yl)ethanone] are 204.3 °C, 87.2 ± 3.97 µM, greater than 100 µM and 85.9 ± 2.92 µM.
`CCn1c(SCC(=O)N2CCN(c3ccccc3)CC2)nnc1-c1ccc2nc(-c3ccc(O)cc3)[nH]c2c1` [4b, 2-((4-Ethyl-5-(2-(4-hydroxyphenyl)-1H-benzo[d]imidazol-6-yl)-4H-1,2,4-triazol-3-yl)thio)-1-(4-phenylpiperazin-1-yl)ethanone]: the melting point is 319 °C. Besides, the half-maximal inhibitory concentration (IC50) in series [2] stood at 7.34 ± 0.21 µM. This molecule also gave an IC50 in series [3] of 42.1 ± 2.1 µM. In addition, the IC50 in series [1] was 56.7 ± 1.18 µM. In addition, the “Topoisomerase I inhibitory effect (gel electrophoresis)” value (from here on “Topoisomerase I inhibitory effect”) in series [4] is reported as “significant inhibitory activity”.
`CCOc1ccc(-c2nc3ccc(-c4nnc(SCC(=O)N5CCN(c6ncccn6)CC5)n4CC)cc3[nH]2)cc1` [4l, 2-((4-Ethyl-5-(2-(4-ethoxyphenyl)-1H-benzo[d]imidazol-6-yl)-4H-1,2,4-triazol-3-yl)thio)-1-(4-(2-pyrimidinyl)piperazin-1-yl)ethanone] displayed a melting point of 140.8 °C. In addition, the IC50 in series [2] stood at 12.4 ± 0.54 µM. The molecule further registered a half-maximal inhibitory concentration (IC50) in series [3] of 38.8 ± 1.82 µM. In series [1], this molecule registered an IC50 of 35.7 ± 1.11 µM.
On the same counts, the results for `CCN1CCN(C(=O)CSc2nnc(-c3ccc4nc(-c5ccc(OC)cc5)[nH]c4c3)n2CC)CC1` [4e, 2-((4-Ethyl-5-(2-(4-methoxyphenyl)-1H-benzo[d]imidazol-6-yl)-4H-1,2,4-triazol-3-yl)thio)-1-(4-ethylpiperazin-1-yl)ethanone] are 112.7 °C, 75.7 ± 2.55 µM, greater than 100 µM and 77.7 ± 2.47 µM.
For `CC[C@@]1(O)C(=O)OCc2c1cc1n(c2=O)Cc2cc3ccccc3nc2-1` [camptothecin, reference compound], the “Topoisomerase I inhibitory effect” value in series [4] is on record as “strong inhibitory effect as a topoisomerase poison”.
`CCn1c(SCC(=O)N2CCN(c3ccccc3)CC2)nnc1-c1ccc2nc(-c3ccc(OC)cc3)[nH]c2c1` [4f, 2-((4-Ethyl-5-(2-(4-methoxyphenyl)-1H-benzo[d]imidazol-6-yl)-4H-1,2,4-triazol-3-yl)thio)-1-(4-phenylpiperazin-1-yl)ethanone] displayed a melting point of 153.8 °C. This molecule registered an IC50 in series [2] of 69.4 ± 3.04 µM. This molecule also returned a 50% inhibitory concentration (IC50) in series [3] greater than 100 µM. The IC50 in series [1] was found to be 92.8 ± 3.06 µM.
As for `CCn1c(SCC(=O)N2CCN(c3ncccn3)CC2)nnc1-c1ccc2nc(-c3ccc(O)cc3)[nH]c2c1` [4d, 2-((4-Ethyl-5-(2-(4-hydroxyphenyl)-1H-benzo[d]imidazol-6-yl)-4H-1,2,4-triazol-3-yl)thio)-1-(4-(2-pyrimidinyl)piperazin-1-yl)ethanone], the melting point came to 144 °C. Besides, in series [2], 54.4 ± 1.84 µM corresponded to half-maximal inhibition (IC50). Also, the IC50 in series [3] was greater than 100 µM. For the same molecule, the IC50 in series [1] was found to be 80.5 ± 2.76 µM.
On to `CCOc1ccc(-c2nc3ccc(-c4nc5cc(N6CCN(C)CC6)ccc5[nH]4)cc3[nH]2)cc1` [Hoechst 33342, reference compound], for which the 50% inhibitory concentration (IC50) in series [2] turned out to be 0.422 ± 0.02 µM; in series [3], 1.05 ± 0.3 µM; in series [1], 13 ± 0.598 µM. Also, in series [4], the “Topoisomerase I inhibitory effect” value is “strong inhibitory effect as a topoisomerase poison”.
Molecule `CCn1c(SCC(=O)N2CCN(c3ncccn3)CC2)nnc1-c1ccc2nc(-c3ccc(OC)cc3)[nH]c2c1` [4h, 2-((4-Ethyl-5-(2-(4-methoxyphenyl)-1H-benzo[d]imidazol-6-yl)-4H-1,2,4-triazol-3-yl)thio)-1-(4-(2-pyrimidinyl)piperazin-1-yl)ethanone] returned a melting point of 190.5 °C. In series [2], this molecule returned an IC50 of 4.56 ± 0.18 µM. Besides, in series [3], the IC50 came to 13.2 ± 0.46 µM. For the same molecule, the half-maximal inhibitory concentration (IC50) in series [1] worked out at 74.4 ± 2.68 µM. In series [4], the “Topoisomerase I inhibitory effect” value was “significant inhibitory activity”.
Turning to `CN[C@@H]1C[C@H]2O[C@@](C)([C@@H]1OC)n1c3ccccc3c3c4c(c5c6ccccc6n2c5c31)C(=O)NC4` [staurosporine], the half-maximal inhibitory concentration (IC50) in series [5] was 4.64 µM.
Take `CCOc1ccc(-c2nc3ccc(-c4nnc(SCC(=O)N5CCN(CC)CC5)n4CC)cc3[nH]2)cc1` [4i, 2-((4-Ethyl-5-(2-(4-ethoxyphenyl)-1H-benzo[d]imidazol-6-yl)-4H-1,2,4-triazol-3-yl)thio)-1-(4-ethylpiperazin-1-yl)ethanone]: the melting point came to 144.3 °C. The molecule also returned an IC50 in series [2] of 33 ± 1.42 µM. The molecule also came in with an IC50 in series [3] of 39.4 ± 2.58 µM. In series [1], this molecule showed an IC50 of 30.6 ± 1.08 µM.

(Values after paper PMC10955584, “New Benzimidazole-Triazole Derivatives as Topoisomerase I Inhibitors: Design, Synthesis, Anticancer Screening, and Molecular Modeling Studies” (ACS Omega, 2024).)
